Molecules are shown by their SMILES.

From ChEMBL document CHEMBL1154771, “Discovery of the first series of small molecule H5N1 entry inhibitors” (J Med Chem, 2009) come the findings set out here.

What all share (format): cell-based
Assay [1] deals with A549. In words: Inhibition of Vesicular stomatitis virus envelope glycoprotein-mediated viral entry into human A549 cells assessed as infectivity at 10 uM after 48 hrs postinfection by luciferase assay relative to control. Set-up: scale not given: the % may be the effect or the level left.
The test system of assay [2] is A549. In words: Inhibition of Influenza A virus (A/Bar-headed Goose/Qinghai/59/05(H5N1)) hemagglutininin-mediated viral entry into human A549 cells assessed as infectivity at 10 uM after 48 hrs postinfection by luciferase assay relative to control. Set-up: scale not given: the % may be the effect or the level left.
Assay [3] relates to A549. Nature of the assay: Inhibition of Influenza A virus (A/Viet Nam/1203/2004(H5N1)) hemagglutininin-mediated viral entry into human A549 cells assessed as infectivity at 10 uM after 48 hrs postinfection by luciferase assay relative to control. Set-up: scale not given: the % may be the effect or the level left.
Assay [4] in a line: Inhibition of Influenza A virus (A/Viet Nam/1203/2004(H5N1)) hemagglutininin-mediated viral entry into human A549 cells assessed as luciferase activity after 48 hrs postinfection by luminometry.
Assay [5] can be described thus: Inhibition of Influenza A virus (A/Bar-headed Goose/Qinghai/59/05(H5N1)) hemagglutininin-mediated viral entry into human A549 cells assessed as luciferase activity after 48 hrs postinfection by luminometry.

With `C[C@@H](CO)CC[C@H]1O[C@H]2C[C@H]3[C@@H]4C[C@H](O)[C@H]5C[C@@H](O[C@@H]6O[C@H](CO)[C@@H](O[C@@H]7O[C@@H](C)[C@H](O)[C@@H](O)[C@H]7O)[C@H](O)[C@H]6O[C@@H]6O[C@@H](C)[C@H](O)[C@@H](O)[C@H]6O)CC[C@]5(C)[C@H]4CC[C@]3(C)[C@H]2[C@@H]1C`, the Activity in the assay on A549 [1] was found to be 111%; in the assay with A549 [2], 97.9%; with A549 [3] it was 102%.

`CCC(/C=C/[C@@H](C)[C@H]1CC[C@H]2[C@@H]3CC=C4C[C@@H](O[C@@H]5O[C@H](CO)[C@@H](O[C@@H]6O[C@@H](C)[C@H](O)[C@@H](O)[C@H]6O)[C@H](O)[C@H]5O[C@@H]5O[C@@H](C)[C@H](O)[C@@H](O)[C@H]5O)CC[C@]4(C)[C@H]3CC[C@]12C)C(C)C` (stereo partly specified): the Activity in the assay with A549 [1] came out at 76.2%; with A549 [2], 73.6%; in the assay on A549 [3], 64.6%.

In the case of `COC(=O)[C@]12CC[C@@H](C)[C@H](C)[C@H]1C1=CC[C@@H]3[C@@]4(C)CC[C@H](O[C@@H]5O[C@H](CO)[C@@H](O[C@@H]6O[C@@H](C)[C@H](O)[C@@H](O)[C@H]6O)[C@H](O)[C@H]5O[C@@H]5O[C@@H](C)[C@H](O)[C@@H](O)[C@H]5O)C(C)(C)[C@@H]4CC[C@@]3(C)[C@]1(C)CC2`, the concentration for half-maximal inhibition (IC50) amounted to 8.54 µM in assay [4] and 6 µM in assay [5]. Also, the Activity came out at 86% in the assay on A549 [1], 37.7% with A549 [2] and 43.3% in the assay with A549 [3].

Take `Cc1cn([C@H]2C[C@H](N=[N+]=[N-])[C@@H](CO)O2)c(=O)[nH]c1=O` [ZIDOVUDINE]: the IC50 in assay [4] came out at 0.011 µM; in assay [5], 0.012 µM. Further, the Activity in the assay on A549 [1] came to 0.015%.

In the case of `C[C@@H]1CC[C@@]2(OC1)O[C@H]1C[C@H]3[C@@H]4C[C@H](O)[C@H]5C[C@@H](O[C@@H]6O[C@H](CO)[C@@H](O[C@@H]7O[C@@H](C)[C@H](O)[C@@H](O)[C@H]7O)[C@H](O)[C@H]6O)CC[C@]5(C)[C@H]4CC[C@]3(C)[C@H]1[C@@H]2C`, the Activity stood at 117% in the assay on A549 [1], 98.2% with A549 [2] and 87.4% with A549 [3].

`C[C@@H]1O[C@@H](O[C@H]2[C@H](O[C@H]3CC[C@@]4(C)C(=CC[C@@H]5[C@@H]4CC[C@]4(C)C(=O)CC[C@@H]54)C3)O[C@H](CO)[C@@H](O[C@@H]3O[C@@H](C)[C@H](O)[C@@H](O)[C@H]3O)[C@@H]2O)[C@H](O)[C@H](O)[C@H]1O`: the figures for the Activity in the assay on A549 [1], in the assay with A549 [2] and in the assay with A549 [3] were 100%, 108% and 106%, respectively.

As for `COC(=O)[C@]12CCC(C)(C)C[C@H]1C1=CC[C@@H]3[C@@]4(C)CC[C@H](O[C@@H]5O[C@H](CO)[C@@H](O[C@@H]6O[C@@H](C)[C@H](O)[C@@H](O)[C@H]6O)[C@H](O)[C@H]5O[C@@H]5O[C@@H](C)[C@H](O)[C@@H](O)[C@H]5O)C(C)(C)[C@@H]4CC[C@@]3(C)[C@]1(C)CC2`, the Activity in the assay with A549 [1] amounted to 48.4%; with A549 [2], 35.3%; in the assay on A549 [3] it was 17.5%.

On to `C[C@@H]1CC[C@@]2(OC1)O[C@H]1C[C@H]3[C@@H]4C[C@H](O)[C@H]5C[C@@H](O[C@@H]6O[C@H](CO)[C@@H](O[C@@H]7O[C@@H](C)[C@H](O)[C@@H](O)[C@H]7O)[C@H](O)[C@H]6O[C@@H]6O[C@@H](C)[C@H](O)[C@@H](O)[C@H]6O)CC[C@]5(C)[C@H]4CC[C@]3(C)[C@H]1[C@@H]2C`, for which the IC50 in assay [4] stood at 7.84 µM; in assay [5], 7.22 µM. Besides, the Activity in the assay with A549 [1] is 111%; in the assay with A549 [2] it was 42.6%; in the assay with A549 [3] it was 36.3%.

Turning to `C[C@@H]1CC[C@@]2(OC1)O[C@H]1C[C@H]3[C@@H]4C[C@H](O)[C@H]5C[C@@H](O[C@@H]6O[C@H](CO)[C@@H](O)[C@H](O)[C@H]6O[C@@H]6O[C@@H](C)[C@H](O)[C@@H](O)[C@H]6O)CC[C@]5(C)[C@H]4CC[C@]3(C)[C@H]1[C@@H]2C`, the Activity in the assay on A549 [1] was found to be 122%; in the assay on A549 [2], 61%; in the assay with A549 [3], 57.9%.

`CC(=O)O[C@H]1C[C@@H]2[C@H](CC[C@]3(C)[C@@H]4[C@H](C[C@@H]23)O[C@]2(CC[C@@H](C)CO2)[C@H]4C)[C@@]2(C)CC[C@H](O[C@@H]3O[C@H](CO)[C@@H](O[C@@H]4O[C@@H](C)[C@H](O)[C@@H](O)[C@H]4O)[C@H](O)[C@H]3O[C@@H]3O[C@@H](C)[C@H](O)[C@@H](O)[C@H]3O)C[C@H]12`: the IC50 in assay [4] stood at 9.25 µM; in assay [5], 7.58 µM. For the same molecule, the results for the Activity with A549 [1], with A549 [2] and in the assay with A549 [3] were 101%, 50.4% and 46.6%, respectively.

By IC50 is commonly meant the concentration needed to halve the response being measured.
